# From patent EP0256909B1, “N,N-bis-(4-fluorophenyl) carbamoyl acetohydroxamic acid and pharmaceutical composition containing it” (priority 1986, dated 1988)
# Entries after “also recorded” stand apart in the source; their conditions may differ.
# Experiments:
# [1] = system: rat; test: Search for stereotyped movements; format: in vivo; conditions: for mouvements stéréotypés (cotes): 22 h 30 min after administration, scored 0 to 3
# Description: (§1) Le CRL 41131, en suspension dans une solution de gomme arabique à 5%, a été administré par voie intrapéritonéale sous un volume de 20 ml/kg chez la souris (mâle, NMRI, Evic Ceba) et de 5 ml/kg chez le rat (mâle, CD1, Sprague Dawley, Charles River).
# [2] = system: souris; test: Interaction with reserpine; format: in vivo; conditions: 128 et 512 mg/kg i.p., mouse, 4 h after reserpine 2,5 mg/kg i.p.
# Description: Quatre heures après l'injection intrapéritonéale de 2,5 mg/kg de réserpine, des lots de 6 souris reçoivent le CRL 41131.
# [3] = system: souris; test: Motility reduced by hypoxic aggression; format: in vivo; conditions: 8, 32, above all 128 et 512 mg/kg i.p., after acute hypobaric anoxia
# Description: Trente minutes après avoir reçu le CRL 41131, les souris (10 par dose, 20 témoins) sont soumises à une anoxie hypobare aiguë (dépression de 600 mmHg en 90 s, détente de 45 s), puis elles sont placées en actimètre où leur motilité est enregistrée pendant 10 min.
# [4] = system: souris; test: Spontaneous motility (actimeter); format: in vivo
# Description: Après avoir reçu le CRL 41131, les souris (6 par dose, 12 témoins) sont placées en actimètre où leur motilité est enregistrée pendant 30 min.
# [5] = system: rat; test: Interaction with apomorphine, rat; format: in vivo; conditions: 64 and above all 256 mg/kg i.p., 30 min before s.c. apomorphine 0,5 mg/kg
# Description: as §1
# Le CRL 41131 est administré à des lots de 6 rats 30 min avant l'injection sous-cutanée de 0,5 mg/kg d'apomorphine.
# [6] = system: souris; test: Interaction with apomorphine, mouse; format: in vivo; conditions: compound i.p. 30 min before s.c. apomorphine 1 or 16 mg/kg
# Description: as §1
# Des lots de 6 souris reçoivent le CRL 41 131 30 min avant l'injection sous-cutanée d'apomorphine, à la dose de 1 ou 16 mg/kg. • a) Apomorphine 1 mg/kg • b) Apomorphine 16 ma/ka
# [7] = system: souris; test: Interaction with oxotremorine; format: in vivo; conditions: mouse, oxotremorine 0,5 mg/kg i.p.
# Description: Le CRL 41131 est administré à des lots de 6 souris 30 min avant l'injection intrapéritonéale de 0,5 mg/kg d'oxotrémorine.
# [8] = system: rat; test: Interaction with amphetamine; format: in vivo
# [9] = system: souris; test: Electroshock test; format: in vivo
# [10] = system: souris; test: Four plates test; format: in vivo; conditions: mouse, 30 min after i.p. administration
# Description: as §1
# (§2) Le test est pratiqué sur des lots de 10 souris, 30 min après l'administration de CRL 41131.
# [11] = system: souris; test: Intergroup aggressiveness; format: in vivo
# Description: Après avoir séjourné pendant 3 semaines dans chacune des moitiés d'une cage séparées par une cloison opaque, des groupes de 3 souris reçoivent le CRL 41131. Trente minutes plus tard, les deux groupes d'une même cage sont réunis par retrait de la cloison et on note le nombre de combats qui surviennent en 10 min.
# [12] = system: rat; test: Global behaviour and reactivities, rat; format: in vivo
# Description: (§3) Des lots de 3 animaux sont observés avant, puis 15 min, 30 min, 1 h, 2 h, 3 h et 24 h après l'administration de CRL 41131.
# [13] = system: souris; test: Motility reduced by habituation to the enclosure; format: in vivo; conditions: 32, 128 et 512 mg/kg i.p.
# Description: Après 18 h de séjour dans les actimètres, les souris (6 par dose, 12 témoins) reçoivent le CRL 41131. Elles sont aussitôt replacées dans leurs enceintes respectives et, 30 min plus tard, on enregistre leur motilité pendant 30 min.
# [14] = system: souris; test: Global behaviour and reactivities, mouse; format: in vivo
# Description: as §3
# [15] = system: souris; test: Asphyxic anoxia (gallamine triethiodide); format: in vivo; conditions: i.p. 30 min before gallamine triethiodide 32 mg/kg i.p.
# Description: Des lots de 10 souris reçoivent le CRL 41131 30 min avant l'administration intrapéritonéale de 32 mg/kg de triiodoéthylate de gallamine.
# [16] = system: souris; conditions: in vivo, ip
# Description: as §1, §2
# [17] = Solubility of the powder in solvents; format: physicochemical
# [18] = system: homme; test: Use as stimulant antidepressant in man; format: in vivo; conditions: 2 to 3 tablets of 150 mg per day, oral route
# [19] = system: souris; test: Interaction with barbital; format: in vivo; conditions: 128 et 512 mg/kg, barbital 220 mg/kg i.p.
# Description: Trente minutes après l'administration de CRL 41131, des lots de 10 souris reçoivent une injection intrapéritonéale de barbital (220 mg/kg).
# [20] = system: souris; test: Pretoxicity (3 mice per dose); conditions: intraperitoneal, mouse
# Description: as §1
# [21] = comparison section, no dose given
structure (smiles),measurement,setting,value
"O=C(CC(=O)N(c1ccc(F)cc1)c1ccc(F)cc1)NO [CRL 41131, acide N,N-bis-(4-fluorophényl) carbamoylacétohydroxamique]",mouvements stéréotypés (cotes),[1]; 64 mg/kg i.p.,1
same,mouvements stéréotypés (cotes),[1]; 128 mg/kg i.p.,2
same,mouvements stéréotypés (cotes),[1]; 256 mg/kg i.p.,3
same,mouvements stéréotypés persistant pendant,[1]; 128 et 256 mg/kg i.p.,> 30 h
same,mouvements stéréotypés,"[1]; from the lowest dose used, 64 mg/kg i.p.",provoque l'apparition de mouvements stéréotypés
same,hypothermie réserpinique,[2],s'oppose tardivement (24 h)
same,ptôsis réserpinique,[2],s'oppose tardivement (24 h)
same,récupération motrice,[3],amélioration de la récupération motrice
same,durée de l'effet,[4]; 32 mg/kg i.p.,4 h
same,durée de l'effet,[4]; 128 mg/kg i.p.,4 à 24 h
same,durée de l'effet,[4]; 512 mg/kg i.p.,> 24 h
same,hypermotilité,"[4]; 512 mg/kg i.p. (highest dose), given 30 min before actimeter",l'hypermotilité est moins importante qu'à 128 mg/kg
same,activité motrice spontanée,"[4]; 8, 32, 128 et 512 mg/kg i.p., given 30 min before actimeter",augmente modérément l'activité motrice spontanée
same,activité motrice spontanée,"[4]; 128 et 512 mg/kg i.p., given 2 h before actimeter",cette augmentation est plus nette
same,motilité spontanée,"[4]; 128 et 512 mg/kg i.p., given 4 h before actimeter",augmente la motilité spontanée
same,activité motrice spontanée,"[4]; from 8 mg/kg i.p., given 2 h before actimeter",augmente l'activité motrice spontanée
same,minimal effective dose,"[4]; ip, mouse, i.p., overall conclusion, read-out: doses qui augmentent l'activité motrice spontanée",≥ 32 mg/kg
same,motilité spontanée,"[4]; only 512 mg/kg i.p., given 24 h before actimeter",augmente modérément la motilité spontanée
same,stéréotypies induites par l'apomorphine,[5],potentialisation
same,action hypothermisante induite par l'apomorphine,[6],ne s'oppose pas
same,comportements de verticalisation et de stéréotypies,[6],ne sont pas modifiés
same,action hypothermisante de l'oxotrémorine (température),[7],n'a pas d'effet; also recorded: ne modifie pas
same,intensité des tremblements provoqués par l'oxotrémorine,[7],n'a pas d'effet; also recorded: ne modifie pas
same,signes de stimulation cholinergique périphérique dus à l'oxotrémorine,[7],ne modifie pas
same,stéréotypies amphétaminiques,"[8]; 64 and above all 256 mg/kg i.p., rat, 30 min before amphetamine 2 mg/kg i.p.",potentialisation importante
same,test à l'amphétamine: stéréotypies du rat,[8]; [21],potentialise ces stéréotypies
same,effets létaux de l'électrochoc,"[9]; 32, 128 et 512 mg/kg i.p., mouse, 30 min after administration",aggrave modérément les effets létaux de l'électrochoc
same,test à l'électrochoc,[9]; [21],aggrave les effets létaux de l'électrochoc
same,nombre de passages punis,[10],n'entraîne pas d'augmentation nette du nombre de passages punis
same,nombre de combats,"[11]; 512 mg/kg i.p. (highest dose used), 30 min before, fights in 10 min",diminue nettement le nombre de combats
same,agressivité intergroupe des souris,"[11]; 128 et 512 mg/kg, comparison section",diminution
same,"comportement: excitation, réaction de peur",[12]; 256 mg/kg i.p.,excitation et augmentation de la réaction de peur (entre 2 h et 24 h)
same,"stéréotypies, réactivité au toucher","[12]; 256 mg/kg i.p., 24 h","stéréotypies, augmentation de la réactivité au toucher en 24 h"
same,comportement et réactivités,"[12]; 4, 16 et 64 mg/kg i.p.",pas de modification nette du comportement et des réactivités
same,activité motrice chez la souris habituée à son enceinte,[13],reprise nette de l'activité motrice
same,Comportement global: excitation,[14]; 128 mg/kg i.p.,excitation (1/3) pendant 1 h
same,Comportement global: excitation,[14]; 512 mg/kg i.p.,"excitation (1/3 pendant 1 h, 2/3 entre 2 et 3 h, et 3/3 à 24 h)"
same,Comportement global et réactivités à 24 h,"[14]; 512 mg/kg i.p., 24 h","mouvements d'apparence stéréotypée, augmentation de la réaction de peur et de la réactivité au toucher à 24 h"
same,"Comportement, réactivités, variations du diamètre pupillaire et de la température",[14]; 8 et 32 mg/kg i.p.,comparables à ceux du lot témoin
same,délai d'apparition des convulsions consécutives à une anoxie asphyxique,[15],ne modifie pratiquement pas
same,incapacité motrice,[16],ne provoque pas l'incapacité motrice majeure
same,"solubilité dans les alcools, l'acétone, l'acétate d'éthyle","[17]; alcohols, acetone, ethyl acetate",soluble
same,solubilité dans l'éther,[17]; ether,peu soluble
same,solubilité dans l'éther isopropylique,[17]; isopropyl ether,insoluble
same,solubilité dans l'eau,[17]; water,insoluble
same,résultats comme antidépresseur stimulant chez l'homme,[18],bons résultats comme antidépresseur stimulant
same,durée du sommeil barbiturique,[19],diminue encore le sommeil; also recorded: diminue la durée du sommeil barbiturique
same,Prétoxicité: signes observés,[20]; 512 mg/kg,"sédation, crampes abdominales, diminution de la fréquence respiratoire pendant 30 min, puis excitation. A 24 h : excitation et stéréotypies"
same,Prétoxicité: signes observés,[20]; 1024 mg/kg,"sédation, crampes abdominales, diminution de la fréquence respiratoire pendant 30 min, puis excitation. A 24 h : excitation, stéréotypies et convulsions"
same,Prétoxicité: signes observés,[20]; 128 et 256 mg/kg,"à partir de 30 min : excitation; à 24 h, l'excitation est encore présente, et présence de stéréotypies"
same,mortalité,[20]; 128 to 1024 mg/kg,Aucune mortalité
